Patent US8637252B2, “Methods and compositions for determining altered susceptibility of HIV-1 to anti-HIV drugs” (Monogram Biosciences, Inc., priority 2011, dated 2014)
Values joined by “and” are separate entries in the source; they are usually repeats but may differ in a detail not shown here. Equal entries are not always repeated.

Tests used:
[1] = system: HIV-1 (patient-derived PR-RT segment); experiment: phenotypic drug resistance test, resistance test vectors with patient-derived PR-RT segment, luciferase, 293 cells; format: cell-based
Text: Patient-derived segments corresponding to the HIV protease and reverse transcriptase coding regions (hereinafter “PR-RT) were amplified by the reverse transcription-polymerase chain reaction method (RT-PCR) using viral RNA isolated from viral particles present in the plasma or serum of HIV-infected individuals as follows. Viral RNA was isolated from the plasma or serum using oligo-dT magnetic beads (Dynal Biotech, Oslo, Norway), followed by washing and elution of viral RNA. The RT-PCR protocol was divided into two steps. A retroviral reverse transcriptase (e.g. Moloney MuLV reverse transcriptase (Roche Molecular Systems, Inc., Branchburg, N.J.; Invitrogen, Carlsbad, Calif.), or avian myeloblastosis virus (AMV) reverse transcriptase, (Boehringer Mannheim, Indianapolis, Ind.)) was used to copy viral RNA into cDNA. The cDNA was then amplified using a thermostable DNA polymerase (e.g. Taq (Roche Molecular Systems, Inc., Branchburg, N.J.), Tth (Roche Molecular Systems, Inc., Branchburg, N.J.), PRIMEZYME. (enzyme_isolated from Thermus brockianus, Biometra, Gottingen, Germany)) or a combination of thermostable polymerases as described for the performance of “long PCR” (Barnes, W. M., 1994, Proc. Natl. Acad. Sci, USA 91, 2216-20) (e.g. Expand High Fidelity PCR System (Taq+Pwo), (Boehringer Mannheim. Indianapolis, Ind.); GENEAMP® XL PCR kit (PCR kit using_Tth+Vent), (Roche Molecular Systems, Inc., Branchburg, N.J.); or ADVANTAGE II®, Clontech, Palo Alto, Calif.)
PCR primers were designed to introduce ApaI and PinAl recognition sites into the 5′ or 3′ end of the PCR product, respectively.
Resistance test vectors incorporating the “test” patient-derived segments were constructed as described in U.S. Pat. No. 5,837,464 using an amplified DNA product of 1.5 kB prepared by RT-PCR using viral RNA as a template and oligonucleotides PDS Apa, PDS Age, PDS PCR6, Apa-gen, Apa-c, Apa-f, Age-gen, Age-a, RT-ad, RT-b, RT-c, RT-f, and/or RT-g as primers, followed by digestion with ApaI and Agel or the isoschizomer PinAl. To ensure that the plasmid DNA corresponding to the resultant fitness test vector comprises a representative sample of the HIV viral quasi-species present in the serum of a given patient, many (>250) independent E. coli transformants obtained in the construction of a given fitness test vector were pooled and used for the preparation of plasmid DNA.
A packaging expression vector encoding an amphotrophic MuLV 4070A env gene product enables production in a resistance test vector host cell comprising the vector alone viral particles which can efficiently infect human target cells. Vectors encoding all HIV genes with the exception of env were used to transfect a packaging host cell (once transfected the host cell is referred to as a fitness test vector host cell). The packaging expression vector which encodes the amphotrophic MuLV 4070A env gene product is used with the resistance test vector to enable production in the resistance test vector host cell of infectious pseudotyped resistance test vector viral particles.
Drug resistance tests performed with resistance test vectors were carried out using packaging host and target host cells consisting of the human embryonic kidney cell line 293.
Resistance tests were carried out with resistance test vectors using two host cell types. Resistance test vector viral particles were produced by a first host cell (the resistance test vector host cell) that was prepared by transfecting a packaging host cell with the resistance test vector and the packaging expression vector. The resistance test vector viral particles were then used to infect a second host cell (the target host cell) in which the expression of the indicator gene is measured.
The resistance test vectors containing a functional luciferase gene cassette were constructed as described above and host cells were transfected with the resistance test vector DNA. […]

[2] = system: HIV-1 patient-derived test vectors with site-directed reverse transcriptase mutations; experiment: phenotypic drug resistance test, site-directed reverse transcriptase mutants in patient backgrounds; format: cell-based
Experimental: In addition, using conventional technique, the T369I mutation was introduced into a resistance test vector comprising PR-RT segment derived from patient sample 62, which comprises mutations A62V, Q102K, K103N, K122E, D123N, C162S, D177E, 1178L, M184V, T200A, Q207E, T215Y, P243S, V245Q, A272P and R277K in reverse transcriptase. Among these mutations, K103N correlates with resistance to a number of NNRTIs, including NVP. This patient sample was tested for resistance to an NNRTI using the methods described above.
(§1) To further analyze the effects of N348I, T369I, and E399D on NNRTI resistance, an additional series of site directed mutants was constructed in non-wild-type backgrounds. In particular, site-directed mutants comprising the N348I, T369I, or E399D mutation were constructed in POL-containing test vectors obtained from three different patient samples. Results from these experiments are presented as FIG. 11.
as §1, with “on AZT” for “on NNRTI”, “the N3481,” for “the N348I,”, “from two” for “from three”, “samples.” for “samples. Results from these experiments are presented as FIG. 11.”

[3] = Sample 47 (K103K/N, V106V/A, Y181Y/C, G190G/A)
[4] = Sample 58 (K103N, Y181Y/C, G190G/A)
[5] = Sample 62 (K103H, P225P/H, T369T/I)
[6] = Sample 90 (K103K/N, Y181C, G190A)
[7] = E399D mutation, patient 50 background
[8] = E399D mutation, patient 58 or patient 62 background
[9] = N348I and T369I mutations, POL test vectors of patients 50, 58, 62

Row | Compound | fold change in IC50, PR-RT ([1]; Sample 31 (K103N)) | fold change in IC50, PR-RT ([1]; Sample 33 (K103S)) | fold change in IC50, PR-RT ([1]; Sample 34) | fold change in IC50, PR-RT ([1]; Sample 35 (K103H)) | fold change in IC50, PR-RT ([1]; Sample 36 (K103K/W)) | fold change in IC50, PR-RT ([1]; Sample 38 (K103N)) | fold change in IC50, PR-RT ([1]; Sample 39 (T369A)) | fold change in IC50, PR-RT ([1]; Sample 42 (G190G/A)) | fold change in IC50, PR-RT ([1]; Sample 45) | fold change in IC50, PR-RT [1, 3] | fold change in IC50, PR-RT ([1]; Sample 50 (K103N)) | fold change in IC50, PR-RT ([1]; Sample 51) | fold change in IC50, PR-RT ([1]; Sample 52) | fold change in IC50, PR-RT [1, 4] | fold change in IC50, PR-RT [1, 5] | fold change in IC50, PR-RT ([1]; Sample 64 (T369T/A)) | fold change in IC50, PR-RT ([1]; Sample 69) | fold change in IC50, PR-RT ([1]; Sample 72) | fold change in IC50, PR-RT ([1]; Sample 80 (K103K/N, Y181Y/C)) | fold change in IC50, PR-RT ([1]; Sample 81 (K103N, P225H)) | other results
1 | CC(C)Nc1cccnc1N1CCN(C(=O)c2cc3cc(NS(C)(=O)=O)ccc3[nH]2)CC1 [DLV, delavirdine] | 16.4 fold | 8.7 fold | 0.5 fold | 6.5 fold | 6.7 fold | 128.0 fold | 0.2 fold | 0.4 fold | 0.1 fold | 6.2 fold | 250.0 fold | 0.3 fold | 3.1 fold | 149.6 fold | 16.0 fold and 16.00 fold | 1.6 fold | 1.4 fold | 0.9 fold | 65.0 fold | 12.0 fold | fold change in IC50, PR-RT ([1]; Sample 84): 0.9 fold; fold change in IC50, PR-RT ([1]; Sample 85): 25.2 fold; fold change in IC50, PR-RT ([1]; Sample 87): 0.7 fold; fold change in IC50, PR-RT ([1]; Sample 89 (L1001, K103N)): 250.0 fold; fold change in IC50, PR-RT [1, 6]: 4.1 fold; fold change in IC50, PR-RT ([1]; Sample 92): 1.1 fold; fold change in IC50, PR-RT ([1]; Sample 93): 0.3 fold; change in resistance on addition of mutation [2, 7]: increased; change in resistance on addition of mutation [2, 8]: not; change in resistance on addition of mutation [2, 9]: increased resistance
2 | O=C1Nc2ccc(Cl)cc2[C@@](C#CC2CC2)(C(F)(F)F)O1 [EFV, efavirenz] | 22.8 fold | 7.1 fold | 0.4 fold | 9.3 fold | 6.7 fold | 42.0 fold | 0.3 fold | 3.1 fold | 0.2 fold | 123.9 fold | 63.2 fold | 0.5 fold | 1.3 fold | 26.4 fold | 20 fold and 20.0 fold and 20.00 fold | 1.1 fold | 0.8 fold | 0.5 fold | 11.0 fold | 98.0 fold | fold change in IC50, PR-RT ([1]; Sample 84): 0.7 fold; fold change in IC50, PR-RT ([1]; Sample 85): 22.0 fold; fold change in IC50, PR-RT ([1]; Sample 87): 0.9 fold; fold change in IC50, PR-RT ([1]; Sample 89 (L1001, K103N)): 700.0 fold; fold change in IC50, PR-RT [1, 6]: 50.5 fold; fold change in IC50, PR-RT ([1]; Sample 92): 1.0 fold; fold change in IC50, PR-RT ([1]; Sample 93): 0.8 fold; change in resistance on addition of mutation [2, 7]: increased; change in resistance on addition of mutation [2, 8]: not; change in resistance on addition of mutation [2, 9]: increased resistance
3 | Cc1ccnc2c1NC(=O)c1cccnc1N2C1CC1 [NVP, nevirapine] | 88.4 fold | 23.3 fold | 0.3 fold | 25.2 fold | 13.0 fold | 114.0 fold | 0.3 fold | 34.0 fold | 0.3 fold | 400.0 fold | 153.9 fold | 0.4 fold | 2.0 fold | 400.0 fold | 64 fold and 64.0 fold and 64.00 fold | 1.0 fold | 1.0 fold | 0.7 fold | 46.0 fold | 92.0 fold | fold change in IC50, PR-RT ([1]; Sample 84): 0.8 fold; fold change in IC50, PR-RT ([1]; Sample 85): 131.7 fold; fold change in IC50, PR-RT ([1]; Sample 87): 0.8 fold; fold change in IC50, PR-RT ([1]; Sample 89 (L1001, K103N)): 37.0 fold; fold change in IC50, PR-RT [1, 6]: 400.0 fold; fold change in IC50, PR-RT ([1]; Sample 92): 1.1 fold; fold change in IC50, PR-RT ([1]; Sample 93): 1.6 fold; change in resistance on addition of mutation [2, 7]: increased; change in resistance on addition of mutation [2, 8]: not; change in resistance on addition of mutation [2, 9]: increased resistance; resistance of test vector ([2]; T369I introduced into PR-RT segment of patient sample 62 (contains K103N)): enhanced resistance
